Laboratory results taken from US20250248979A1, “NOVEL GPX4 INHIBITORS AND USES THEREOF” (THE TRUSTEES OF COLUMBIA UNIVERSITY IN THE CITY OF NEW YORK, priority 2022, published 2025).

These compounds were tested against T1, GPX4 (Homo sapiens, UniProt P36969) (assay: GPX4 activity assay in cell lysates (NADPH-coupled)). Conditions: not given.
T1 sequence (P36969 1-170 isoform P36969-2): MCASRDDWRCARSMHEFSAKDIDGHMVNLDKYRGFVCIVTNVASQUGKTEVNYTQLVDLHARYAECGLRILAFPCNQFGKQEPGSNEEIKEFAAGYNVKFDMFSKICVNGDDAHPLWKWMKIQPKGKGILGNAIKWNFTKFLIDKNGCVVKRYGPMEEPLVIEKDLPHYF
Assay type: biochemical
Design: endogenous in cells; host or cells: A-673 cell lysate
Description: Determination of GPX4 activity in cell lysates was performed as previously described by Roveri et al. 1994 with minor modifications. Briefly, the assay measures the consumption of NADPH, which has a characteristic absorbance at 340 nm, over time as a proxy for GPX4 activity. The rationale for this is that as GPX4 reduces phospholipid hydroperoxides, it oxidizes glutathione, which is then regenerated by glutathione reductase at the expense of NADPH. NADPH is added to the assay in excess such that the reduction of oxidized glutathione is not the rate-limiting reaction in the assay. Thus, the resulting reduction in NADPH absorbance over time reflects GPX4 activity.
The GPX4-specific substrate phosphatidylcholine hydroperoxide (PCOOH) was prepared by enzymatic hydroperoxidation. Specifically, 0.3 mM phosphatidylcholines (Sigma-Aldrich) were incubated with 0.7 mg soybean lipoxidase type IV (Sigma-Aldrich) in 22 mL of 0.2 M Tris-HCl pH 8.8 with 3 mM sodium deoxycholate at room temperature under continuous stirring for 30 minutes. A Sep-Pak C18 cartridge (Waters-Millipore) was pre-washed with methanol and equilibrated with water, then the substrate mixture was loaded. The column was washed with 10 volumes of water and PCOOH was eluted with 2 mL of methanol.
To prepare the cell lysate containing native GPX4, A-673 cells were cultured with 20 nM sodium selenite to confluency over two days then harvested and washed with cold PBS. Cells were then resuspended at 10 million cells per 1 mL LCW lysis buffer (0.5% peroxide-free Triton X-100, 0.5% sodium deoxycholate salt, 150 mM NaCl, 20 mM Tris-HCl pH 7.5, 10 mM EDTA, 30 mM sodium pyrophosphate, and complete protease inhibitor cocktail), vortexed for 30 seconds, and incubated on ice for 15 minutes. After lysis, the lysates were centrifuged at 14,000×g and 4° C. for 15 minutes. The supernatants were transferred to new pre-chilled tube and the debris pellet was discarded. The protein concentration in the lysate was determined for normalization using the BCA Protein Assay Kit (Pierce).
To measure GPX4 activity, 50 μL of cell lysate was combined with 200 μL activity assay buffer (0.1% Triton X-100, 100 mM Tris-HCl pH 8.0, 10 mM sodium azide, 5 mM EDTA, 0.6 IU/mL glutathione reductase, 0.5 mM NADPH and 3 mM GSH) and compounds of interest in a clear 96-well plate and incubated at 37° C. for 45 minutes. Compounds were dissolved in DMSO. All conditions were tested in triplicate. PCOOH substrate was added to the mixture to initiate GPX4 activity just before reading the plate. The absorbance of NADPH at 340 nm was monitored kinetically over time for 25 minutes. Buffer-only controls and controls without substrate containing only the methanol vehicle were performed to assess background and baseline signal. GPX4 activity was calculated as previously reported by Stolwijk et al. 2020 and results were analyzed in GraphPad Prism 9.

GPX4 inhibitory activity, result in words | SMILES
inactive during GPX4 inhibition | C=CC(=O)OCC(C)(C)NC(=O)c1nn(C)c2cc(Br)ccc12 [QW-417]
inactive during GPX4 inhibition | Cn1nc(C(=O)NC(C)(C)COC(=O)CCl)c2ccc(-c3ccc(C#N)cc3)cc21 [QW-445]
completely loss of the inhibitory effect | COc1cccc(OC)c1-c1ccc2c(C(=O)NC(C)(C)COC(=O)CCl)nn(C)c2c1 [QW-487]
inactive during GPX4 inhibition | Cn1nc(C(=O)NC(C)(C)COC(=O)CCl)c2ccc(-c3ccc(C(F)(F)F)cc3)cc21 [QW-502]

Same assay, conditions: 5 μM

GPX4% inhibition at 5 μM [%] | SMILES
34.1 ± 0.3 | Cn1nc(C(=O)NC(C)(C)COC(=O)CCl)c2ccc(-c3ccc(F)nc3)cc21 [QW-444]
21.2 ± 5.7 | Cn1nc(C(=O)NC(C)(C)COC(=O)CCl)c2ccc(-c3ccc(C#N)cc3)cc21 [QW-445]
37.7 ± 4.1 | Cn1nc(C(=O)NC(C)(C)COC(=O)CCl)c2ccc(-c3ccoc3)cc21 [QW-451]
55.0 ± 5.8 | Cn1nc(C(=O)NC(C)(C)COC(=O)CCl)c2ccc(-c3cccc([N+](=O)[O-])c3)cc21 [QW-452]
67.0 ± 4.7 | Cn1nc(C(=O)NC(C)(C)COC(=O)CCl)c2ccc(-c3cc4ccccc4[nH]3)cc21 [QW-453]
54.4 ± 7.2 | Cn1nc(C(=O)NC(C)(C)COC(=O)CCl)c2ccc(-c3ccc4c(c3)OCCO4)cc21 [QW-457]
−10.3 ± 4.3 | Cn1nc(C(=O)NC(C)(C)COC(=O)CCl)c2ccc(-c3cccc4[nH]ccc34)cc21 [QW-467]
64.3 ± 0.7 | Cn1nc(C(=O)NC(C)(C)COC(=O)CCl)c2ccc(-c3ccc(OC(F)(F)F)cc3)cc21 [QW-469]
59.6 ± 6.8 | COc1cc(-c2ccc3c(C(=O)NC(C)(C)COC(=O)CCl)nn(C)c3c2)cc(OC)c1OC [QW-479]
35.8 ± 7.4 | COc1ccccc1-c1ccc2c(C(=O)NC(C)(C)COC(=O)CCl)nn(C)c2c1 [QW-483]
3.3 ± 3.0 | COc1cccc(OC)c1-c1ccc2c(C(=O)NC(C)(C)COC(=O)CCl)nn(C)c2c1 [QW-487]
77.1 ± 10.4 | Cn1nc(C(=O)NC(C)(C)COC(=O)CCl)c2ccc(-c3cccc(F)c3)cc21 [QW-493]
76.8 ± 2.3 | Cn1nc(C(=O)NC(C)(C)COC(=O)CCl)c2ccc(-c3ccc(Cl)cc3)cc21 [QW-494]
−10.2 ± 6.5 | Cn1nc(C(=O)NC(C)(C)COC(=O)CCl)c2ccc(-c3ccc(C(F)(F)F)cc3)cc21 [QW-502]
65.3 ± 3.2 | Cn1nc(C(=O)NC(C)(C)COC(=O)CCl)c2ccc(-c3ccc(OCc4ccccc4)cc3)cc21 [QW-503]
28.3 ± 3.0 | CC(C)Oc1ccccc1-c1ccc2c(C(=O)NC(C)(C)COC(=O)CCl)nn(C)c2c1 [QW-509]
67.2 ± 1.9 | Cn1nc(C(=O)NC(C)(C)COC(=O)CCl)c2ccc(-c3cccc(OC(=O)CCl)c3)cc21 [QW-510]
50.1 ± 2.4 | Cn1nc(C(=O)NC(C)(C)COC(=O)CCl)c2ccc(-c3ccc(COC(=O)CCl)cc3)cc21 [QW-513]
44.8 ± 6.6 | Cn1nc(C(=O)NC(C)(C)COC(=O)CCl)c2ccc(C3=CCc4ccccc43)cc21 [QW-514]
62.2 ± 5.1 | Cn1nc(C(=O)NC(C)(C)COC(=O)CCl)c2ccc(-c3coc4ccccc34)cc21 [QW-535]
46.6 ± 2.3 | CCOc1ncc(-c2ccc3c(C(=O)NC(C)(C)COC(=O)CCl)nn(C)c3c2)cn1 [QW-536]
46.1 ± 2.7 | Cn1nc(C(=O)NC(C)(C)COC(=O)CCl)c2ccc(-c3ccc(N4CCOCC4)nc3)cc21 [QW-537]

SMILES | GPX4% inhibition at 5 μM [%]
Cn1nc(C(=O)NC(C)(C)COC(=O)CCl)c2ccc(-c3ccccc3Cl)cc21 [QW-492] | 45.7 ± 4.9
CC(C)Oc1ccc(Cl)cc1-c1ccc2c(C(=O)NC(C)(C)COC(=O)CCl)nn(C)c2c1 [QW-495] | 22.9 ± 7.5
Cn1nc(C(=O)NC(C)(C)COC(=O)CCl)c2ccc(-c3ccc(F)c(F)c3)cc21 [QW-500] | 57.5 ± 5.3

Same assay, conditions: 5 μM; generation 2

GPX4% inhibition at 5 μM [%] | SMILES
62.1 ± 2.4 | Cn1nc(C(=O)NC(C)(C)COC(=O)CCl)c2ccc([N+](=O)[O-])cc21 [QW-380]
4.5 ± 17.8 | Cn1nc(C(=O)NC(C)(C)CC(O)S(=O)(=O)[O-])c2ccccc21.[Na+] (centres unmarked) [QW-394]
20.3 ± 9.5 | COc1cccc2c(C(=O)NC(C)(C)COC(=O)CCl)nn(C)c12 [QW-398]
−14.3 ± 5.2 | CC(C)(COC(=O)CCl)NC(=O)c1nc2cc(Br)ccc2[nH]1 [QW-407]
−6.0 ± 3.1 | CC=CC(=O)OCC(C)(C)NC(=O)c1nn(C)c2ccccc12 [QW-411]
−5.7 ± 8.0 | COC(=O)C=CC(=O)OCC(C)(C)NC(=O)c1nn(C)c2ccccc12 [QW-412]
−9.1 ± 13.4 | CC=CC(=O)OCC(C)(C)NC(=O)c1nn(C)c2cc(Br)ccc12 [QW-414]
−9.4 ± 8.1 | COC(=O)C=CC(=O)OCC(C)(C)NC(=O)c1nn(C)c2cc(Br)ccc12 [QW-415]
25.3 ± 13.4 | Cn1nc(C(=O)NC(C)(C)COC(=O)CBr)c2ccc(Br)cc21 [QW-416]
−5.2 ± 10.0 | C=CC(=O)OCC(C)(C)NC(=O)c1nn(C)c2cc(Br)ccc12 [QW-417]
−5.6 ± 5.1 | Cn1nc(C(=O)NC(C)(C)COC(=O)C#C[Si](C)(C)C)c2ccc(Br)cc21 [QW-418]
−10.9 ± 8.0 | C#CC(=O)OCC(C)(C)NC(=O)c1nn(C)c2cc(Br)ccc12 [QW-420]
−11.3 ± 4.7 | Cn1nc(C(=O)NC(C)(C)COC(=O)CCl)c2cccnc21 [QW-426]
−2.3 ± 2.3 | Cc1cc(C(=O)OCC(C)(C)NC(=O)c2nn(C)c3cc(Br)ccc23)no1 [QW-429]
−15.1 ± 8.4 | Cn1nc(C(=O)NCCCCCC=O)c2ccc(Br)cc21 [QW-497]
−10.7 ± 7.8 | Cn1nc(C(=O)NCCCCCC(O)S(=O)(=O)[O-])c2ccc(Br)cc21.[Na+] (centres unmarked) [QW-517]
−9.8 ± 6.7 | Cn1nc(C(=O)NCCCCCCOC(=O)CCl)c2ccc(Br)cc21 [QW-520]
−19.3 ± 9.9 | Cn1nc(C(=O)NCCCCCOC(=O)CCl)c2ccc(Br)cc21 [QW-521]
−24.5 ± 0.5 | Cn1nc(C(=O)NCCCCC=O)c2ccc(Br)cc21 [QW-527]
−36.6 ± 4.8 | Cn1nc(C(=O)NCCCCC(O)S(=O)(=O)[O-])c2ccc(Br)cc21.[Na+] (centres unmarked) [QW-534]

Same assay, conditions: 20 μM; generation 2

GPX4% inhibition at 20 (μM) [%] | SMILES
0.5 ± 5.4 | Cn1nc(C(=O)N2CCN(C(=O)CCl)CC2)c2ccccc21 [QW-370]
2.9 ± 2.2 | Cc1onc(C(=O)N2CCN(C(=O)c3nn(C)c4ccccc34)CC2)c1[N+](=O)[O-] [QW-371]
1.6 ± 3.0 | Cn1nc(C(=O)NC(C)(C)COC(=O)C(F)Cl)c2ccccc21 (centres unmarked) [QW-374]
4.1 ± 4.7 | Cn1nc(C(=O)NC(C)(C)C=O)c2ccccc21 [QW-387]
1.6 ± 1.9 | Cn1nc(C(=O)NC(C)(C)CC=O)c2ccccc21 [QW-388]
32.2 ± 2.5 | Cn1nc(C(=O)NC(C)(C)C(O)S(=O)(=O)[O-])c2ccccc21.[Na+] (centres unmarked) [QW-389]
4.0 ± 3.9 | CC(C)(COC(=O)CCl)NC(=O)c1n[nH]c2ncccc12 [QW-390]
5.3 ± 8.5 | CC(C)(COC(=O)CCl)NC(=O)c1ncn2ccccc12 [QW-391]

Same assay, conditions: 200 μM; generation 2

GPX4% inhibition at 200 (μM) [%] | SMILES
7.0 ± 3.9 | Cn1nc(C(=O)NC(C)(C)COC(=O)C#C[Si](C)(C)C)c2ccccc21 [QW-367]

Same assay, conditions: concentration not given

GPX4 inhibition rate [%] | SMILES
50 | Cn1nc(C(=O)NC(C)(C)COC(=O)CCl)c2ccc(-c3cccc([N+](=O)[O-])c3)cc21 [QW-452]
